The source of these data is US20060264439A1, “Inhibitors of polo-like kinase-1” (SuperGen, Inc., priority 2005, published 2006).

This test concerns the target T1, Plk-1 (Homo sapiens, UniProt P53350).
T1 construct: purchased Cyclex
The experiment in a line: ELISA-based Polo-like Kinase-1 activity assay (Cyclex). The test is classed as biochemical. The following applies: compound at 10 uM, 10 mU purified Plk-1, 50 uM ATP, 30 minutes at 30° C. The protocol: An ELISA-based Polo-like Kinase-1 activity assay (Cyclex, Nagano Japan) was used to confirm the Plk-1 inhibitory activity of the illustrative compound of the invention having the structure shown below. [drawing 39]
Briefly, 10 mU of purified Plk-1 (Cyclex) was incubated with the compound of interest in triplicate wells of a substrate-coated 96-well plate, along with 50 uM ATP and kinase buffer, for 30 minutes at 30° C. Wells were washed and probed with the anti-phospho-threonine antibody, incubated for 30 minutes at room temperature, then washed and probed again with an HRP-Anti Rabbit IgG. HRP substrate was added and the extent of phosphorylation was measured using a dual-wavelength spectrophotometer. At a concentration of 10 uM, compound (IB-10) inhibited Plk-1 activity in this assay by greater than 60%.
An ELISA-based Polo-like Kinase-1 activity assay (Cyclex, Nagano Japan) was used to confirm the Plk-1 inhibitory activity of the illustrative compound of the invention having the structure shown below (Compound 18, Table 1). [drawing 40]
Briefly, 10 mU of purified Plk-1 (Cyclex) was incubated with the compound in triplicate wells of a substrate-coated 96-well plate, along with 50 uM ATP and kinase buffer, for 30 minutes at 30° C. […] HRP substrate was added and the extent of phosphorylation was measured using a dual-wavelength spectrophotometer.

T1 sequence (P53350 whole entry): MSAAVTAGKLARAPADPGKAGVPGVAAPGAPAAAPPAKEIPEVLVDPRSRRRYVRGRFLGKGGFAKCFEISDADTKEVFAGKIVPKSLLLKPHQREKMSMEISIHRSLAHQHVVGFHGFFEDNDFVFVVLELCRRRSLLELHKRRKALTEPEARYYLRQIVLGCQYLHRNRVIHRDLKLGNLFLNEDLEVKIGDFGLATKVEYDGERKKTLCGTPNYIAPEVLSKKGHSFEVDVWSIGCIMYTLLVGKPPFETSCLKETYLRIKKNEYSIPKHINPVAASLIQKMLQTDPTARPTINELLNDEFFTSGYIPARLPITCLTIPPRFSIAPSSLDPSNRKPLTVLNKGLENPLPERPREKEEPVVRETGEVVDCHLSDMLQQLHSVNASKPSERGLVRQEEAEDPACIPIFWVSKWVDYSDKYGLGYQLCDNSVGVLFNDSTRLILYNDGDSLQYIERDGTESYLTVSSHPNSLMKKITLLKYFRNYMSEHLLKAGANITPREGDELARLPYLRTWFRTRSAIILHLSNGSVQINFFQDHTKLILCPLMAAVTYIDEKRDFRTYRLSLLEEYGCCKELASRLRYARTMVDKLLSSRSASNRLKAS

`COc1cc2nncc(Nc3ccc(S(=O)(=O)NC(C)=O)cc3)c2cc1OC` [Compound 18, N-Acetyl-4-(6,7-dimethoxy-cinnolin-4-ylamino)-benzenesulfonamide]: the “Plk-1 activity reduced to % of untreated controls” value (remaining activity) is given as 88%. Regarding `NC(=O)c1nnc2cc(Cl)c(F)cc2c1/N=C/c1ccc([N+](=O)[O-])cc1` [IB-10, (E)-4-(4-nitrobenzylideneamino)-7-chloro-6-fluorocinnoline-3-carboxamide], under “read-out: inhibited Plk-1 activity”, the inhibition at 10 µM was above 60%.
